Experimental data: patent publication US9096528B2, “2-aminonicotinic acid ester derivative and bactericide containing same as active ingredient” (AGRO-KANESHO CO., LTD., priority 2012, dated 2015)

System: Botrytis cinerea
Experiment: Test on Botrytis cinerea (gray mold) of a cucumber
Format: in vivo
Details: 25 ppm; cut cucumber cotyledons inoculated with spore suspension; 20° C. for 72 hours; from lesion diameter vs non-treatment region
Procedure: A cucumber plant (a plant variety: “Sagami Han-shiro”) of 12 days after seeding was prepared for the test. Parts of cotyledons of the cucumber plant were cut out with leaving about 2 cm of its rachis. Apart from this, a plastic case with a size of 32 cm×24 cm×4.5 cm (length×width×height), at the bottom of which a paper towel sufficiently moistened with water was laid, and on the paper towel a mesh with legs was placed, was prepared. On the mesh, the above-described cut-out parts of cotyledons were placed such that leaves were horizontal. To the central part of each of the cotyledons, 50 μl of a spore suspension (1×10^6 spores/ml) of Botrytis cinerea of a cucumber was added dropwise. Thereafter, each of cotyledons was covered with a paper disc with a diameter of 6 mm. Apart from this, an emulsion prepared according to the above Preparation Example 1 was diluted with an aqueous solution of 0.02% Tween 20 in demineralized water to prepare a diluent of a predetermined concentration. 50 μl of the diluent was dropped on each paper disc. The plastic case was lidded and was placed under the condition of 20° C. for 72 hours, and then the diameter of each lesion was measured and the controlling rate for Botrytis cinerea (gray mold) of a cucumber was calculated according to the following equation. […]

SMILES: CCOc1cccc(Oc2ccc(CNC(=O)c3cccnc3N)cc2)c1 [A]
- Controlling rate (%): 54%
